Laboratory results as given in BindingDB's records for doi:10.1016/s0960-894x(02)00796-5 (Janssen-Cilag, 2002).

Experiments:
[1] = Binding affinity against […] adrenergic receptor
[2] = as above; remark: listed apart in the source

SMILES	IC50 [1] [nM]	IC50 [2] [nM]
CN(C)CC1CC2c3ccccc3Cc3ccc(Cl)cc3N2O1 (centres undefined)	871	
CN(C)CC1CC2c3cccnc3Cc3ccccc3N2O1 (centres undefined)		< 1000
CN(C)CC1CC2c3ccccc3Cc3ccncc3N2O1 (centres undefined)		< 1000
CN(C)C[C@@H]1C[C@@H]2c3ccccc3Cc3ccccc3N2O1 [Dimethyl-[(2S,3aR)-1-(2,3,3a,8-tetrahydro-1-oxa-12b-aza-dibenzo[e,h]azulen-2-yl)methyl]-amine]	1860	
